Assays:
[1] = tested on: human STING pathway (THP1-ISG cells); assay: STING human cell reporter assay; assay type: cell-based; conditions: Homo sapiens, IRF-inducible SEAP reporter, 24 h, means of at least three values
Method: Agonism of the human STING pathway is assessed in THP1-ISG cells (Invivogen, cat #thp-isg) derived from human THP1 monocyte cell line by stable integration of an interferon regulatory factor (IRF)-inducible SEAP reporter construct. THP1-Blue ISG cells express a secreted embryonic alkaline phosphatase (SEAP) reporter gene under the control of an ISG54 minimal promoter in conjunction with five interferon (IFN)-stimulated response elements. As a result, THP1-Blue ISG cells allow the monitoring of IRF activation by determining the activity of SEAP. The levels of IRF-induced SEAP in the cell culture supernatant are readily assessed with alkaline phosphatase detection medium, a SEAP detection reagent. These cells are resistant to Zeocin. 2′3′cGAMP was used as a positive control in this assay. To run the assay, 60,000 cells were dispensed in 30 μL/well of a white, opaque bottom tissue culture treated 384-well plate.
Test compounds were added in a volume of 10 μL (1% DMSO final concentration). Compounds are initially prepared in 100% DMSO, spotted on an compound dilution plate and then diluted in media prior to transfer. The assay was incubated for 24 h at 37° C., 5% CO2 then plates were centrifuged at 1200 rpm (120×g) for 5 min. After final incubation, 90 μL of alkaline phosphatase detection medium-substrate was added to each well of a new 384-well clear plate and 10 μL of the cell supernatant was transferred from the assay plate to the new alkaline phosphatase detection medium-plate using a Biomek FX and mixed 4 times. Plates were incubated at RT for 20 min then absorbance at 655 nm was determined on the Tecan Safire2.

[2] = target: T1, human STING (E. coli produced truncated STING protein) (Homo sapiens, UniProt Q86WV6, H232R); assay: STING SPR binding assay; conditions: steady state affinity, 1:1 binding model, 25° C.
T1 construct: contains residues 139-379 of Q86WV6 with an R at position 232 (H232R); HIS tag (N, cleaved yes); made in house; host or cells: E. coli
T1 sequence (Q86WV6 139-379 H232R): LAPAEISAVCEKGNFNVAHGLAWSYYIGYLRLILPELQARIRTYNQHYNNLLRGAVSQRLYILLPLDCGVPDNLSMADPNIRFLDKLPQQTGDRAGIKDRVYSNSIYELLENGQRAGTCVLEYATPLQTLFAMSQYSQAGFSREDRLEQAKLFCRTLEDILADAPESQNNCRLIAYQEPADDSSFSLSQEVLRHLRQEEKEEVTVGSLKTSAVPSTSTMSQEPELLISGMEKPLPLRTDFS
Method: Compounds were analyzed on an S200 biacore SPR instrument (GE Healthcare). E. coli produced truncated STING protein was immobilized on a series S streptavidin chip via biotin capture (GE Healthcare #BR100531) with. […] Steady state affinity and kinetic evaluations were carried out using 1:1 binding model (STING was treated as a dimer). Run parameters were as follows: 60 sec on, 300 sec off for the IFM compounds, cyclic-di-GMP (60 sec on/60 sec off), thiol isomer 1 (60 sec on/300 sec off) and cGAMP (60 sec on/1200 sec off) with a flow rate of 50 μL/min and data collection at 40 Hz at 25° C.

[3] = target: human STING (biotinylated STING protein, residues 139-379 of Q86WV6, H232R) (Homo sapiens, UniProt Q86WV6, H232R); assay: STING SPA binding assay
human STING (biotinylated STING protein, residues 139-379 of Q86WV6, H232R), sequence (Q86WV6 139-379 H232R, one chain of several): as the sequence (Q86WV6 139-379 H232R) above
Method: The HIS tag is cleaved after purification and prior to biotinylation.
Test compounds (80 nL) were added with an acoustic dispenser (EDC Biosystems) in 100% DMSO for a final assay concentration of 1% DMSO. Plates were centrifuged for 1 min and incubated for 60 min at room temperature. […] Plates were dark adapted for 2 h and read on a ViewLux (Perkin Elmer) for 12 min per plate.

[4] = tested on: THP1-Blue ISG cells (IFN-β secretion); assay: Human interferon-β induction assay; assay type: cell-based; conditions: total cumulative IFN-β induction over the dose range tested (0.78 to 50 uM) in THP-1 cells after a 24 hour exposure
Method: THP1-Blue ISG cells are used to measure the secretion of IFN-β into the culture supernatant following STING pathway activation. To run the assay, anti-IFN-β capture antibodies were coated on […] well MultiArray plates (Mesoscale Discovery). After a one hour incubation, plates were washed and 50 μL supernatant from the STING human cell reporter assay plates or IFN-β standards were mixed with 20 μL Sulfotag-conjugated detection antibody in the coated plates. Plates were incubated, shaking for 2 h, washed, and read buffer was applied. Electrochemiluminescence was measured on the SectorImager.

[5] = tested on: CT26 colon carcinoma tumor; assay: STING in vivo activity, mouse CT26 tumor model; conditions: 0.05 mg intratumorally every three days, three doses, 8 mice per group; for In vivo activity (% TGI): CT26 tumors in Balb/c mice
Method: For all studies, female Balb/c mice were obtained from Charles River Labs (Wilmington, Mass.) and used when they were 6-8 weeks of age and weighed approximately 20 g. All animals were allowed to acclimate and recover from any shipping-related stress for a minimum of 5 days prior to experimental use. Reverse osmosis chlorinated water and irradiated food (Laboratory Autoclavable Rodent Diet 5010, Lab Diet) were provided ad libitum, and the animals were maintained on a 12 h light and dark cycle. Cages and bedding were autoclaved before use and changed weekly. All experiments were carried out in accordance with The Guide for the Care and Use of Laboratory Animals and were approved by the Institutional Animal Care and Use Committee of Janssen R & D, Spring House, Pa. Each experimental group contained 8 mice. In vivo efficacy in a mouse CT26 tumor model was determined by implanting 500,000 CT26 colon carcinoma tumor cells subcutaneously into Balb/c mice and allowing tumors to establish to 100-300 mm^3. Compounds were injected intratumorally formulated in phosphate buffered saline in a volume of 0.1 mL Per injection. Mice were administered 0.05 mg every three days for a total of three doses. Efficacy was measured as the percent tumor growth inhibition (TGI) calculated by the reduction in size of the Treated tumor volume (T) over the Control tumor volume (C) according to the following formula. ((C−T)/(C))*100 when all control animals were still on study. Cures were defined as the number of animals with no measurable tumor detected 10 tumor volume doubling times (TVDT) after the last dose was administered.

| EC50 [1] [nM] | Kd [2] [nM] | IC50 [3] [nM] | Compound | human IFN-β (ranking value) [4] [pg/mL] | In vivo activity (% TGI) [5] [%] | In vivo activity (cures) ([5]; number of animals with no measurable tumor 10 tumor volume doubling times after the last dose) |
| --- | --- | --- | --- | --- | --- | --- |
| 77 | 1.2 | 4.6 | CO[C@H]1[C@H]2OS(=O)(=O)NC[C@H]3O[C@@H](n4cnc5c(N)ncnc54)[C@H](F)[C@@H]3OP(=O)(O)OC[C@H]1O[C@H]2n1cnc2c(=O)[nH]c(N)nc21 [Compound 1] | 7930 | 108.9 | 6 |
| 100 | 3480 | 29200 | CO[C@H]1[C@H]2OP(=O)(O)OC[C@@]34CO[C@@H]([C@H](n5cnc6c(N)ncnc65)O3)[C@@H]4OS(=O)(=O)NC[C@H]1O[C@H]2n1cnc2c(=O)[nH]c(N)nc21 [Compound 25] | 6595 | 88.9 | – |
